This is an account of results in patent publication US5183828A, “Polyhydroxybenzoic acid derivatives” (priority 1990, dated 1993).

Where a name gives a salt, the structure may show the parent alone.

For experiment [1], the target named is ribonucleotide reductase. Description: ribonucleotide reductase inhibition (conversion of CDP to dCDP), Table 1. The note with it: enzyme partially purified from HeLa cells or Ehrlich ascites cells; 40 min, 30° C; read-out: ID50 (inhibitory dose which inhibits ribonucleotide reductase by 50%). The format is biochemical. An excerpt:
Compounds represented by formula I above have the ability to inhibit ribonucleotide reductase, an enzyme involved in the reductive conversion of ribonucleotides to deoxyribonucleotides. This enzymatic reaction is a rate controlling step in the biosynthetic pathway leading to DNA and cell replication. In general, the ribonucleotide reductase level is closely correlated with cellular replication. […] In addition, the compounds have shown activity against P388 leukemia and B16 melanoma.
The results of biological tests of compounds according to formula I are incorporated in a series of Tables which follow. Table 1 gives ribonucleotide reductase data for representative compounds of formula I. In the table, column 1 gives the substitution pattern in the benzene- ring, column 2, the (CHR")m group, column 3, the [drawing 5] group, and column 4, the ID50 (inhibitory dose in micromolar concentration which inhibits ribonucleotide reductase by 50%) in μmoles.
In the above determination of ID50 's in Table 1, ribonucleotide reductase is partially purified from HeLa cells or Ehrlich ascites cells by a procedure similar to that set forth by Elford et al. J. Biol. Chem., 245, 5228 (1970). The activity of the enzyme was measured by a slightly modified assay procedure originally developed by Reichard et al. id, 236, 1150 (1969). This procedure measures the conversion of CDP to dCDP. The assay mixture (0.34 ml.) contains 3 μCi of [^3 H] CDP (specific activity […]), 3.3 μmole ATP, 5.9 μmoles magnesium chloride, 8.8 μmoles Hepes buffer at pH=7.5, 15 μmoles dithiothreitol and enzyme protein between 0.4 and 1.3 mg. Incubation was provided for forty minutes at 30° C. Ion exchange chromatography employing Dowex 50 (H^+) resin is used to separate the product from the substrate. The inhibitors were dissolved in water and a mixture of water and up to 1% ethanol or 2% dimethylsulfoxide, neither one of which inhibited the enzyme at these concentrations. Each inhibitor was tested at a minimum of three concentrations and the active compounds reassayed at least one additional time. ID50 's (μmolar) were estimate from graphs summarizing results for each compound.

Experiment [2] has as its system superoxide (xanthine oxidase reaction or human leukocytes). Kind of experiment: effect on superoxide generation in vitro. The format is biochemical. On the procedure:
The rate of production of superoxide from the xanthine oxidase reaction or from human leukocytes activated with phorbol myristate acetate was measured spectrophotometrically as the superoxide dismutase (SOD)-inhibitable portion of the reduction of ferricytochrome c or nitroblue tetrazolium (NBT). All assays were carried out at 37° C., pH 7.1. For the superoxide production by the xanthine oxidase reaction, a concentration of 0.04 U/ml of xanthine oxidase was used with 0.1 mM xanthine as substrate. Absorbances were measured in the presence of 30 U/ml of SOD and in its absence. The indicators were either ferricytochrome c or NBT in a concentration of 20 uM. The initial rate of reduction of NBT was monitored at 530 nm and that of cytochrome c at 550 nm. Extinction coefficients were 21.4×10 ^3 /M cm for cytochrome c and 17.9×10^3 /M cm for NBT. The initial rate of production of superoxide from leukocytes was measured using a concentration of 20 uM ferricytochrome c or NBT as described above in the presence and absence of 30 U/ml of SOD.

Experiment [3] has as its system L1210. Description: antileukemia activity of nitriles vs L1210, Table 8. Type of experiment: in vivo. The text has this:
Table 8 which follows gives anti-tumor data vs L-1210 and P-388 leukemia for these novel nitriles.

For experiment [4], the system named is L1210 leukemia. Description: antitumor activity in L1210 leukemia (percent increase in survival time), Table 2. Type of experiment: in vivo, mice. Particulars: 8 days; for ILS at 100 mg/kg: 100 mg/kg ip daily; for ILS at 200 mg/kg: 200 mg/kg ip daily. On the procedure: Testing of the compounds of this invention against L-1210 lymphoid leukemia were carried out as follows: L-1210 leukemia was maintained by weekly passage of 10^5 L-1210 cells intraperitoneally into DBA/2 mice. Diluted ascitic fluid, 0.1 ml. (10^5 cells), was administered ip to female B6D2 F1 mice weighing about 20 g. Drugs were administered ip 24 hours after tumor transplantation and injections were continued daily for a total of eight days. A group of control mice receiving only the injection medium were maintained. Table 2 which follows gives the antitumor activity against L-1210 leukemia for certain compounds of this invention. In the table, column 1 gives the name of the compound, column 2 the dose in mg./kg., and column 3 the percent increase in survival time over controls at each dose level.

Experiment [5] in a line: free radical scavenging ability (destruction of diphenylpicrylhydrazyl), Table 7. Particulars: 100 μM diphenylpicrylhydrazyl in acetone; test compound 25 μM, 2.5 μM (footnote). The text has this:
It is believed that the antineoplastic activity of the compounds of this invention is due in parts to their ability to scavenge free-radicals. Additionally, the compounds of this invention are cancer protective agents and this utility also may be a manifestation of their free-radical scavenging capability. Free-radical scavenging agents may also be useful in detoxifying mammals in whom an excess of free radicals is a cause and/or result of the toxicity. Other possible uses of free radical scavengers are to inhibit protaglandin transformation, leucotriene interconversion and lipogenesis, to act as inflammatory modulators and as food additive or preservatives to prevent lipid oxidation. The free radical scavenging ability of the compounds of the invention was determined by measuring the destruction of the stable free radical, diphenylpicrylhydrazyl, in the presence of the test compound in a manner similar to that reported by […] and Herzmann, Naturwiss, 47, 133-134 (1960). […] The test compound was added at a final concentration of 25 μM and the rate of reduction of absorpotion at […] was observed. Table 7 below gives the free radical scavenging abilities of the compounds of this invention expresses as the initial rate of decrease in optical density units/min.

Setting [6] is: Mus musculus, L1210, 192 h, 300 mg/kg ip daily.

On to `NC(=NO)c1cccc(O)c1O`, for which the IC50 in experiment [1] was 18 µM.

For the compound 3,4,5-TRIHYDROXYBENZAMIDATE, the “Cytochrome C Reduction” value in experiment [2] (10 uM compound) was 4.89 nmol; in experiment [2] (20 uM compound), 3.21 nmol; in experiment [2] (50 uM compound), 2.22 nmol; in experiment [2] (100 uM compound), 1.91 nmol. For the same compound, the “NBT Reduction” value in experiment [2] (10 uM compound) was found to be 7.60 nmol; in experiment [2] (20 uM compound), 6.10 nmol; in experiment [2] (50 uM compound) it was 3.67 nmol; in experiment [2] (100 uM compound) it was 1.78 nmol; in experiment [2] (200 uM compound), 1.45 nmol; in experiment [2] (500 uM compound), 1.23 nmol.

In the case of `N#Cc1cc(O)c(O)c(O)c1O` [2,3,4,5-tetrahydroxybenzonitrile], the “% Increase in Survival Time” value in experiment [3] (163 mg/kg) was 48.4%; in experiment [3] (230 mg/kg) it was “Toxic”.

In the case of `NC(=NO)c1ccc(O)c(O)c1O` [2,3,4-trihydroxybenzamidoxime-HCl, 2,3,4-trihydroxybenzamidoxime], the “% Increase in Survival Time” value in experiment [4] (300 mg/kg ip daily) is “toxic”. In experiment [4] (Mus musculus, L1210, 192 h), this compound yielded an ILS at 100 mg/kg of 38.9% and an ILS at 200 mg/kg of 36.1%. In experiment [4] (Mus musculus, L1210, 192 h, 218 mg/kg ip daily), this compound came in with an ILS at 218 mg/kg of 67.7%.

With `N#Cc1ccc(O)c(O)c1O` [2,3,4-trihydroxybenzonitrile], the “% Increase in Survival Time” value in experiment [3] (50 mg/kg) was 11.0%; in experiment [3] (100 mg/kg), 26.0%; in experiment [3] (155 mg/kg), 12.1%; in experiment [3] (259 mg/kg) it was “Toxic”; in experiment [3] (327 mg/kg), “Toxic”.

Regarding `Cl.NC(=NO)c1cccc(O)c1O` [2,3-dihydroxybenzamidoxime-HCl], in experiment [4] (300 mg/kg ip daily), the “% Increase in Survival Time” value is “toxic”.

For the compound `ON=C(NO)c1cc(O)c(O)c(O)c1` [3,4,5-trihydroxybenzohydroxyamidoxime-HCl], in experiment [4] (Mus musculus, L1210, 192 h), the ILS at 100 mg/kg stood at 47.2% and the ILS at 200 mg/kg was 55.6%. Moreover, in experiment [4] (setting [6]), the ILS at 300 mg/kg was 63.9%. In addition, in experiment [5], the “initial rate of decrease in optical density (518 nm)” value (“initial rate of decrease” below) was 0.882 units/min.

Turning to `Cl.N=C(N)c1ccc(O)c(O)c1` [3,4-dihydroxybenzamidine-HCl], in experiment [4] (Mus musculus, L1210, 192 h, 52 mg/kg ip daily), the ILS at 52 mg/kg amounted to 26.8%. In addition, in experiment [4] (Mus musculus, L1210, 192 h), the ILS at 100 mg/kg stood at 58.3% and the ILS at 200 mg/kg is 41.7%. The ILS at 104 mg/kg in experiment [4] (Mus musculus, L1210, 192 h, 104 mg/kg ip daily) is 34.1%. The compound further yielded an ILS at 300 mg/kg in experiment [4] (setting [6]) of 47.2%. In experiment [4] (Mus musculus, L1210, 192 h, 400 mg/kg ip daily), this compound came in with an ILS at 400 mg/kg of 47.8%. Moreover, the ILS at 603 mg/kg in experiment [4] (Mus musculus, L1210, 192 h, 603 mg/kg ip daily) came to 83%. Moreover, the “initial rate of decrease” value in experiment [5] is 1.721 units/min.

In experiment [4] (Mus musculus, L1210, 192 h, 155 mg/kg ip daily), `ON=C(NO)c1ccc(O)c(O)c1` [3,4-dihydroxybenzohydroxyamidoxime-HCl, 3,4-Dihydroxybenzohydroxyamidoxime hydrochloride] gave an ILS at 155 mg/kg of 39%. Moreover, the ILS at 200 mg/kg in experiment [4] (Mus musculus, L1210, 192 h) was 47.8%. Also, the ILS at 300 mg/kg in experiment [4] (setting [6]) was found to be 41.3%.

Turning to `N#Cc1ccc(O)c(O)c1` [3,4-dihydroxybenzonitrile], the “% Increase in Survival Time” value in experiment [3] (47.6 mg/kg) is 4.7%; in experiment [3] (95.2 mg/kg), 15.6%; in experiment [3] (196 mg/kg), “Toxic”.

`NC(=NO)C(O)c1ccc(O)c(O)c1.O` (stereo not shown) [3,4-dihydroxymandelamidoxime, 3,4-dihydroxymandelamidoxime monohydrate] yielded an ILS at 435 mg/kg in experiment [4] (Mus musculus, L1210, 192 h, 435 mg/kg ip daily) of 45.2%. The same compound registered an ILS at 606 mg/kg in experiment [4] (Mus musculus, L1210, 192 h, 606 mg/kg ip daily) of 45.2%. In addition, the “initial rate of decrease” value in experiment [5] was 0.383 units/min.

Turning to `NC(=NO)c1ccc(O)c(O)c1` [drawing 8], the IC50 in experiment [1] turned out to be 8 µM.

For the compound `CCOC(=N)c1ccc(O)c(O)c1` [drawing 9], the IC50 in experiment [1] was found to be 12 µM.

Consider `N=C(N)c1ccc(O)c(O)c1` [drawing 10], for which the IC50 in experiment [1] amounted to 20 µM.

In the case of `ON=C(NO)c1ccc(O)c(O)c1` [drawing 11], the IC50 in experiment [1] amounted to 40 µM.

In the case of `NC(=NO)c1cc(O)c(O)c(O)c1` [drawing 12], in experiment [1], the IC50 is 5 µM.

Take `CCOC(=N)c1cc(O)c(O)c(O)c1` [drawing 13]: the IC50 in experiment [1] came to 15 µM.

Regarding `N=C(N)c1cc(O)c(O)c(O)c1` [drawing 14], in experiment [1], the IC50 was 25 µM.

Take `ON=C(NO)c1cc(O)c(O)c(O)c1` [drawing 16]: in experiment [1], the IC50 worked out at 25 µM.

Turning to `NC(=NO)c1ccc(O)c(O)c1O` [drawing 17], the IC50 in experiment [1] stood at 7 µM.

Consider `CCOC(=N)c1ccc(O)c(O)c1` [ethyl 3,4-dihydroxybenzamidate-HCl, ethyl 3,4-dihydroxybenzamidate hydrochloride], for which the “% Increase in Survival Time” value in experiment [4] (218 mg/kg ip daily), in experiment [4] (327 mg/kg ip daily) and in experiment [4] (435 mg/kg ip daily) was “toxic” throughout. Besides, the “initial rate of decrease” value in experiment [5] is 0.706 units/min.

Take `N#Cc1c(O)c(O)c(O)c(O)c1O` [pentahydroxybenzonitrile]: the “% Increase in Survival Time” value in experiment [3] (34.3 mg/kg) is on record as 14.2%; in experiment [3] (51.5 mg/kg), 0%; in experiment [3] (77.2 mg/kg), “Toxic”; in experiment [3] (116.0 mg/kg), “Toxic”.
